Test results: patent US11780842B2, “TYK2 pseudokinase ligands” (Ventyx Biosciences, Inc., priority 2019, dated 2023)

Test system: IFN-a/Jak1Tyk2
Test: Co-stimulation assay in lysed whole blood: IFNa (JAK1/TYK2) stimulated STAT1 phosphorylation
Type: cell-based
Details: lysed human whole blood, IFNa 100 ng/mL (co-stimulated with GM-CSF 10 ng/mL), pSTAT1 by flow cytometry
Method: Example 4: Co-Stimulation Assay in Lysed Whole Blood; JAK2: GM-CSF Stimulated STATS Phosphorylation and JAK1/TYK2 Stimulated STAT1 Phosphorylation Assay
Human Blood Lysis Using Abcam's RBC Lysis Buffer
Dilute RBC lysis buffer to 1× in distilled water. Add 2 mL blood to 38 mL of 1×RBC-lysis buffer. Incubate for 15 mins at RT, in dark. Spin at 300 g, 5 mins, to collect the pellet. Re-lyse if necessary. Re-suspend pellet in 5 mL of cRPMI.
Compound and Cytokine Treatment
Aliquot 80 μL of lysed human blood in to wells of 96 deep-well plate. Add 10 μl of (10× conc.) of different concentrations of compounds to all wells except controls (unstained and unstimulated) and mix it with the help of 100 uL multichannel. Add 10 uL of RPMI media in controls. For dilution of compounds and dilution range please refer Appendix. Incubate on water bath or CO2 incubator for 1 hour at 37° C. Add 10 μL of (10× conc.) of cytokine mix (GM-CSF and IFNa) (final conc. 10 ng/mL of GM-CSF and 100 ng/mL of IFNa) to each well except unstimulated and unstained controls and incubate further for 20 minutes on water bath at 37° C.
Add 900 μL of prewarmed 1× Fix/Lyse solution (Appendix) and mix it properly using 1000 μl multichannel, incubate further on water bath at 37° C. for 10 minutes (which includes time of addition). Centrifuge at 800× g for 5 minutes at 40° C.; remove 900 uL of supernatant and add 900 μL of 1×PBS. Centrifuge at 800× g for 5 minutes at 40° C., remove 900 μL of supernatant. Wash one more time with 900 μL of PBS (optional) and resuspend pellets in 100 uL of PBS.
Disrupt the pellet by gentle tapping and resuspend in 1000 μL of BD Phosflow Perm Buffer III and incubate plate on ice for 30 minutes. Centrifuge plate at 800× g for 5 minutes at 40° C. Wash two more times with 1000 μL of BD Pharmingen Stain Buffer.
Disrupt the pellet by gentle tapping. Resuspend pellets in 100 uL of Stain Buffer and add 5 μL of pSTAT5_AF488 Ab and 5 uL of pSTAT1_PE in all wells except unstained control and mix properly using 200 μl multichannel, incubate overnight at […]. Add 900 μL of wash buffer and centrifuge at 1800 rpm for 3 minutes at […]. Wash one more time with 1000 μL of BD Pharmingen Stain Buffer. Finally resuspend the pellet in 300 uL of BD Pharmingen Stain Buffer. Transfer the cells to 96-well v-bottom plate and acquire the cells in Beckman Coulter CytExpert. Acquiring cells in Flow Cytometer: Keep the threshold value to 250 and cell concentration should not exceed 100-500 cells/μL. Acquire at least 5,000-10,000 cells.
RPMI 1640 Complete Medium: RPMI 1640 media+10% FBS.
Cytokine dilution: 1) GM-CSF Stock at 100 ug/mL. Prepare an intermediate dilution of 1 ug/mL by adding 2 uL of stock into 198 uL of cRPMI. Further dilute to 100 ng/mL by adding 100 uL of the intermediate stock to 900 uL of cRPMI. 2) IFNa Stock at 200 ug/mL. Dilute IFNa stock 1:200 by adding 5 uL of stock into the 1000 uL of 100 ng/mL GM-CSF working stock as above to give a combined working stock of 1000 ng/mL of IFNa and 100 ng/mL GM-CSF (lox). Keep it on ice until used.
Lyse/Fix buffer preparation: Dilute 5× Lyse/Fix buffer to 1× using MQ water and keep at 37° C. until used.
BD Phosflow perm buffer III: Keep on ice/fridge.

SMILES	IC50 [µM]
CNc1cc2nc3c(cnn13)C(=O)NCCOc1ccc(F)cc1N2 [Compound 32, (1^3E,1^4E)-3^5-fluoro-1^7-(methylamino)-4-oxa-2,7-diaza-1(5,3)-pyrazolo[1,5-a]pyrimidina-3(1,2)-benzenacyclooctaphan-8-one]	0.1 to 1
CNc1cc2nc3c(cnn13)C(=O)NCCOc1cc(C)cc(c1)N2 [Compound 26, (1^3E,1^4E)-3^5-methyl-1^7-(methylamino)-4-oxa-2,7-diaza-1(5,3)-pyrazolo[1,5-a]pyrimidina-3(1,3)-benzenacyclooctaphan-8-one]	0.1 to 1
CNc1cc2nc3c(cnn13)C(=O)NCCCc1cccc(c1)N2 [Compound 18, (1^3E,1^4E)-1^7-(methylamino)-2,7-diaza-1(5,3)-pyrazolo[1,5-a]pyrimidina-3(1,3)-benzenacyclooctaphan-8-one]	0.1 to 1
CNc1cc2nc3c(cnn13)C(=O)NCCC(=O)c1cccc(c1)N2 [Compound 44, (1^3E,1^4E)-1^7-(methylamino)-2,7-diaza-1(5,3)-pyrazolo[1,5-a]pyrimidina-3(1,3)-benzenacyclooctaphane-4,8-dione]	1 to 10
CNc1cc2nc3c(cnn13)C(=O)NCCOc1cccc(n1)N2 [Compound 17, (1^3E,1^4E)-1^7-(methylamino)-4-oxa-2,7-diaza-1(5,3)-pyrazolo[1,5-a]pyrimidina-3(2,6)-pyridinacyclooctaphan-8-one]	≤ 0.5
CNc1cc2nc3c(cnn13)C(=O)NCCc1cccc(c1)N2 [Compound 16, (1^3E,1^4E)-1^7-(methylamino)-2,6-diaza-1(5,3)-pyrazolo[1,5-a]pyrimidina-3(1,3)-benzenacycloheptaphan-7-one]	≤ 0.5
CNc1cc2nc3c(cnn13)C(=O)NCCOc1cncc(c1)N2 [Compound 41, (1^3E,1^4E)-1^7-(methylamino)-4-oxa-2,7-diaza-1(5,3)-pyrazolo[1,5-a]pyrimidina-3(3,5)-pyridinacyclooctaphan-8-one]	1 to 10
CNc1cc2nc3c(cnn13)C(=O)NCCCc1cc(cc(OC)c1)N2 [Compound 40, (1^3E,1^4E)-3^5-methoxy-1^7-(methylamino)-2,7-diaza-1(5,3)-pyrazolo[1,5-a]pyrimidina-3(1,3)-benzenacyclooctaphan-8-one]	1 to 10
CNc1cc2nc3c(cnn13)C(=O)NCCOc1cc(Cl)cc(c1)N2 [Compound 33, (1^3E,1^4E)-3^5-chloro-1^7-(methylamino)-4-oxa-2,7-diaza-1(5,3)-pyrazolo[1,5-a]pyrimidina-3(1,3)-benzenacyclooctaphan-8-one]	0.1 to 1
[2H]C1([2H])NC(=O)c2cnn3c(NC)cc(nc23)Nc2cccc(c2)OC1([2H])[2H] [Compound 15, (1^3E,1^4E)-1^7-(methylamino)-4-oxa-2,7-diaza-1(5,3)-pyrazolo[1,5-a]pyrimidina-3(1,3)-benzenacyclooctaphn-8-one-5,5,6,6-d4]	≤ 0.5
CNc1cc2nc3c(cnn13)C(=O)NCCOc1cc(ccc1F)N2 [Compound 21, (1^3E,1^4E)-3^4-fluoro-1^7-(methylamino)-4-oxa-2,7-diaza-1(5,3)-pyrazolo[1,5-a]pyrimidina-3(1,3)-benzenacyclooctaphan-8-one]	0.1 to 1
CNc1cc2nc3c(cnn13)C(=O)NCCOc1ccccc1N2 [Compound 20, (1^3E,1^4E)-1^7-(methylamino)-4-oxa-2,7-diaza-1(5,3)-pyrazolo[1,5-a]pyrimidina-3(1,2)-benzenacyclooctaphan-8-one]	0.1 to 1
